Measured values taken from ChEMBL document CHEMBL4507293 (2021).

Experiments:
[1] = target: Cyclin-dependent kinase 13 (Homo sapiens) (UniProt Q14004); settings: Compound concentration 100.0 nM
[2] = target: Casein kinase II subunit alpha' (Homo sapiens) (UniProt P19784); settings: Compound concentration 100.0 nM
[3] = target: Insulin-like growth factor 1 receptor (Homo sapiens) (UniProt P08069); settings: Compound concentration 100.0 nM
[4] = tested on: Phosphatidylinositol 4,5-bisphosphate 3-kinase catalytic subunit alpha isoform (Homo sapiens), P42336 [Q546K]; settings: Compound concentration 100.0 nM
[5] = target: Ephrin type-A receptor 8 (Homo sapiens) (UniProt P29322); settings: Compound concentration 100.0 nM
[6] = target: Tyrosine-protein kinase ZAP-70 (Homo sapiens) (UniProt P43403); settings: Compound concentration 100.0 nM
Sequence of Tyrosine-protein kinase ZAP-70 (Homo sapiens) (P43403 whole entry): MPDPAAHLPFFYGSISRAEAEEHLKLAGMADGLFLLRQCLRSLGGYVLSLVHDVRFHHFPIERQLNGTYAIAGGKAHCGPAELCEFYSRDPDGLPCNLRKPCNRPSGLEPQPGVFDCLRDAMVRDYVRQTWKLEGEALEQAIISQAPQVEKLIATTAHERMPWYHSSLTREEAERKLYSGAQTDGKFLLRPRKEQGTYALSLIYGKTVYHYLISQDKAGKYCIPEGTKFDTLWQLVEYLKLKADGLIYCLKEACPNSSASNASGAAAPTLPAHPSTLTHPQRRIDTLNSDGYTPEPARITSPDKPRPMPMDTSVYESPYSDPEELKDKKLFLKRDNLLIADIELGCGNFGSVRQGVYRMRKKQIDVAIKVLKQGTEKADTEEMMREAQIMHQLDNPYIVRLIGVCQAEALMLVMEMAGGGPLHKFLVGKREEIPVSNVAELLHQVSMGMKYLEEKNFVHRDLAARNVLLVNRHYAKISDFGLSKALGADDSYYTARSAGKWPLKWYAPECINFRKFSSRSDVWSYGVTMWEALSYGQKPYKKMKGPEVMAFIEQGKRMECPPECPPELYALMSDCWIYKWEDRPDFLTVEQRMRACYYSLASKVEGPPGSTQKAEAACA

[7] = target: BMP-2-inducible protein kinase (Homo sapiens) (UniProt Q9NSY1); settings: Compound concentration 100.0 nM
[8] = target: Atypical kinase COQ8B, mitochondrial (Homo sapiens) (UniProt Q96D53); settings: Compound concentration 100.0 nM
Sequence of Atypical kinase COQ8B, mitochondrial (Homo sapiens) (Q96D53 whole entry): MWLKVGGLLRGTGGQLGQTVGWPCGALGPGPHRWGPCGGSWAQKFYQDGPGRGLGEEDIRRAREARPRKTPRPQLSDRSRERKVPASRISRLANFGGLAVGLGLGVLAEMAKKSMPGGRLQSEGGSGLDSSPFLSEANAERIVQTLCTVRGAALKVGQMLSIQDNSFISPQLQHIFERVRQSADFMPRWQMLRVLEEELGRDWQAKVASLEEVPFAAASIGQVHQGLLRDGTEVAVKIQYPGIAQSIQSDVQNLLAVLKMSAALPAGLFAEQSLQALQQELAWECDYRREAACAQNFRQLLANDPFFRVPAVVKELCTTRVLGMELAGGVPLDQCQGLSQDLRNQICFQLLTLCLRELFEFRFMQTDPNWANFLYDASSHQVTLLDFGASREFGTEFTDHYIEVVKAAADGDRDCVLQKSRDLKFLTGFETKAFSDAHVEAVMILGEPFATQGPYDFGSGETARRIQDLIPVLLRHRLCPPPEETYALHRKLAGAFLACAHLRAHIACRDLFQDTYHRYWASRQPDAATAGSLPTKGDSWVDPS

[9] = target: Serine/threonine-protein kinase 10 (Homo sapiens) (UniProt O94804); settings: Compound concentration 100.0 nM
[10] = target: Cyclin-dependent kinase 2 homolog (Plasmodium falciparum (isolate 3D7)) (UniProt P61075); settings: Compound concentration 100.0 nM
[11] = target: Microtubule-associated serine/threonine-protein kinase 1 (Homo sapiens) (UniProt Q9Y2H9); settings: Compound concentration 100.0 nM
[12] = tested on: eIF-2-alpha kinase GCN2 (Homo sapiens), Q9P2K8 [S808G]; settings: Compound concentration 100.0 nM
[13] = tested on: Serine/threonine-protein kinase B-raf (Homo sapiens), P15056 [V600E]; settings: Compound concentration 100.0 nM
[14] = target: 3-phosphoinositide-dependent protein kinase 1 (Homo sapiens) (UniProt O15530); settings: Compound concentration 100.0 nM
[15] = target: Serine/threonine-protein kinase PAK 2 (Homo sapiens) (UniProt Q13177); settings: Compound concentration 100.0 nM
[16] = tested on: Phosphatidylinositol 4,5-bisphosphate 3-kinase catalytic subunit alpha isoform (Homo sapiens), P42336 [I800L]; settings: Compound concentration 100.0 nM
[17] = target: Cyclin-dependent kinase 14 (Homo sapiens) (UniProt O94921); settings: Compound concentration 100.0 nM
[18] = target: Phosphatidylinositol 5-phosphate 4-kinase type-2 beta (Homo sapiens) (UniProt P78356); settings: Compound concentration 100.0 nM
[19] = target: Activin receptor type-1 (Homo sapiens) (UniProt Q04771); settings: Compound concentration 100.0 nM
[20] = target: Ankyrin repeat and protein kinase domain-containing protein 1 (Homo sapiens) (UniProt Q8NFD2); settings: Compound concentration 100.0 nM
[21] = target: RAC-alpha serine/threonine-protein kinase (Homo sapiens) (UniProt P31749); settings: Compound concentration 100.0 nM
[22] = tested on: Receptor-type tyrosine-protein kinase FLT3 (Homo sapiens), P36888 [UNDEFINED MUTATION]; settings: Compound concentration 100.0 nM
[23] = target: Bone morphogenetic protein receptor type-2 (Homo sapiens) (UniProt Q13873); settings: Compound concentration 100.0 nM
[24] = target: Sigma non-opioid intracellular receptor 1 (Homo sapiens) (UniProt Q99720); settings: Compound concentration 10.0 uM
[25] = target: Serine/threonine-protein kinase 17B (Homo sapiens) (UniProt O94768); settings: Compound concentration 100.0 nM
Sequence of Serine/threonine-protein kinase 17B (Homo sapiens) (O94768 whole entry): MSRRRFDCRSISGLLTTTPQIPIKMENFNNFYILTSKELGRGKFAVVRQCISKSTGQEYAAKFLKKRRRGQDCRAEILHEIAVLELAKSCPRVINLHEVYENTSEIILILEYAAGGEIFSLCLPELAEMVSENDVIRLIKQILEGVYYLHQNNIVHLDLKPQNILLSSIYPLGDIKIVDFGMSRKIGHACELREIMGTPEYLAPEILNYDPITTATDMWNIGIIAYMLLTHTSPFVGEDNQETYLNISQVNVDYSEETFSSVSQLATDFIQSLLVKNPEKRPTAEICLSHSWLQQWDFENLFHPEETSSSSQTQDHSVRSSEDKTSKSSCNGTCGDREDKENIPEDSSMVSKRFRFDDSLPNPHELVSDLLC

[26] = target: Rhodopsin kinase GRK1 (Homo sapiens) (UniProt Q15835); settings: Compound concentration 100.0 nM
Sequence of Rhodopsin kinase GRK1 (Homo sapiens) (Q15835 whole entry): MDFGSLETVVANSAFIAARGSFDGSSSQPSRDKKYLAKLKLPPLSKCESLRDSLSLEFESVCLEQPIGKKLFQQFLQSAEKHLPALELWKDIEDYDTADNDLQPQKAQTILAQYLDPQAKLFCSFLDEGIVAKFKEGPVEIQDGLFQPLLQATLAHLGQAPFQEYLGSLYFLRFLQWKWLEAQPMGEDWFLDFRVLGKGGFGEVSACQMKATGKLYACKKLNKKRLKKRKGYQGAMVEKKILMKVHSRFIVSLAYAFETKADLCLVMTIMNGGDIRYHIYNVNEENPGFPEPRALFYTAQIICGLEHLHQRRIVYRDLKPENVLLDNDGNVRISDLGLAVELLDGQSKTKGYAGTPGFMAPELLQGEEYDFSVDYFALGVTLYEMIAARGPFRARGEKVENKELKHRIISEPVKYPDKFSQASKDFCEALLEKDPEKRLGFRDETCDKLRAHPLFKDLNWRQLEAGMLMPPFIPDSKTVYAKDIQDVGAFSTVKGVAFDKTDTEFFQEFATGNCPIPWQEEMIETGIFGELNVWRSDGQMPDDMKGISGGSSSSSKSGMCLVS

[27] = target: Serine/threonine-protein kinase 32A (Homo sapiens) (UniProt Q8WU08); settings: Compound concentration 100.0 nM
[28] = target: Fibroblast growth factor receptor 2 (Homo sapiens) (UniProt P21802); settings: Compound concentration 100.0 nM
[29] = tested on: Proto-oncogene tyrosine-protein kinase receptor Ret (Homo sapiens), P07949 [V804M]; settings: Compound concentration 100.0 nM
[30] = target: Casein kinase I isoform alpha-like (Homo sapiens) (UniProt Q8N752); settings: Compound concentration 100.0 nM
[31] = target: Serine/threonine-protein kinase MRCK gamma (Homo sapiens) (UniProt Q6DT37); settings: Compound concentration 100.0 nM
[32] = tested on: Tyrosine-protein kinase ABL1 (Homo sapiens), P00519 [F317L]; settings: Compound concentration 100.0 nM
[33] = target: Kappa-type opioid receptor (Homo sapiens) (UniProt P41145); settings: Compound concentration 10.0 uM
Sequence of Kappa-type opioid receptor (Homo sapiens) (P41145 whole entry): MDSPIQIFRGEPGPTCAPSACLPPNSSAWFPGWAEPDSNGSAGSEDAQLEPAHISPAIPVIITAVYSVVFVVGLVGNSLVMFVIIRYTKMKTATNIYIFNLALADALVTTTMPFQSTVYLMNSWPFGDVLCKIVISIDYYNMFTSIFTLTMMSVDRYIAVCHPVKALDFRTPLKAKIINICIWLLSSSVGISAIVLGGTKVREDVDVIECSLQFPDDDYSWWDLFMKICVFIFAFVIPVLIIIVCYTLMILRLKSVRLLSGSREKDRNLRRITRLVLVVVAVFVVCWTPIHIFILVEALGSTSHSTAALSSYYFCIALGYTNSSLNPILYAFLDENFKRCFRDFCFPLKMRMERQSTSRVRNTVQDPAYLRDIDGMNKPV

[34] = target: AP2-associated protein kinase 1 (Homo sapiens) (UniProt Q2M2I8); settings: Compound concentration 100.0 nM
[35] = target: Serine/threonine-protein kinase Nek10 (Homo sapiens) (UniProt Q6ZWH5); settings: Compound concentration 100.0 nM
[36] = target: Serine/threonine-protein kinase N1 (Homo sapiens) (UniProt Q16512); settings: Compound concentration 100.0 nM
[37] = target: Serine/threonine-protein kinase Nek7 (Homo sapiens) (UniProt Q8TDX7); settings: Compound concentration 100.0 nM
[38] = target: Tyrosine-protein kinase HCK (Homo sapiens) (UniProt P08631); settings: Compound concentration 100.0 nM
[39] = target: Mu-type opioid receptor (Homo sapiens) (UniProt P35372); settings: Compound concentration 10.0 uM
[40] = target: Discoidin domain-containing receptor 2 (Homo sapiens) (UniProt Q16832); settings: Compound concentration 100.0 nM
Sequence of Discoidin domain-containing receptor 2 (Homo sapiens) (Q16832 whole entry, the tested form may be a part): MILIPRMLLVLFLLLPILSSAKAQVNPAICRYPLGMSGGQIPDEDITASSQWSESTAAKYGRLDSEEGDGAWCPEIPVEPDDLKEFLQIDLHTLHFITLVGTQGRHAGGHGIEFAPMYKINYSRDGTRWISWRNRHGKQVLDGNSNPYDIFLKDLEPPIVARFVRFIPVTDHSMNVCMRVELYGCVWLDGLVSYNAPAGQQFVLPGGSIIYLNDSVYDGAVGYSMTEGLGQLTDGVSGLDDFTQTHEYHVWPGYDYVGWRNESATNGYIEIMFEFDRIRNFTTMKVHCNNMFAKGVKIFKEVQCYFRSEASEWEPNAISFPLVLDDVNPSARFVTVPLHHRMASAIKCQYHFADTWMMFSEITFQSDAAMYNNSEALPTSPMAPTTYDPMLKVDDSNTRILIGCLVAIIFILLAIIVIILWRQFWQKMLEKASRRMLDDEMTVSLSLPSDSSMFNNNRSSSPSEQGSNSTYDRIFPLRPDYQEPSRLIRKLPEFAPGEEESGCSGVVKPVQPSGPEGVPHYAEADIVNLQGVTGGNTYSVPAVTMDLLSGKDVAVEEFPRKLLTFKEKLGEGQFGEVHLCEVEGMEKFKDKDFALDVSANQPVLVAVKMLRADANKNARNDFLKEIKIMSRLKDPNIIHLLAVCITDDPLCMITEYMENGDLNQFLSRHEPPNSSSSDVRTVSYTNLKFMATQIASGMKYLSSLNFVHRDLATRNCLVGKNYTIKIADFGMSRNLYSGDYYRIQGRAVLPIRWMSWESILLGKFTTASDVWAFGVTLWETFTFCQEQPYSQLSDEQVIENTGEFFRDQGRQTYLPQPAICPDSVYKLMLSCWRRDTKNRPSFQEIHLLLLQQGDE

[41] = target: Cyclin-dependent kinase 2 (Homo sapiens) (UniProt P24941); settings: Compound concentration 100.0 nM
[42] = target: Megakaryocyte-associated tyrosine-protein kinase (Homo sapiens) (UniProt P42679); settings: Compound concentration 100.0 nM
[43] = target: Myosin light chain kinase, smooth muscle (Homo sapiens) (UniProt Q15746); settings: Compound concentration 100.0 nM
[44] = target: Homeodomain-interacting protein kinase 3 (Homo sapiens) (UniProt Q9H422); settings: Compound concentration 100.0 nM

Sequence of Cyclin-dependent kinase 13 (Homo sapiens) (Q14004 whole entry, looked up): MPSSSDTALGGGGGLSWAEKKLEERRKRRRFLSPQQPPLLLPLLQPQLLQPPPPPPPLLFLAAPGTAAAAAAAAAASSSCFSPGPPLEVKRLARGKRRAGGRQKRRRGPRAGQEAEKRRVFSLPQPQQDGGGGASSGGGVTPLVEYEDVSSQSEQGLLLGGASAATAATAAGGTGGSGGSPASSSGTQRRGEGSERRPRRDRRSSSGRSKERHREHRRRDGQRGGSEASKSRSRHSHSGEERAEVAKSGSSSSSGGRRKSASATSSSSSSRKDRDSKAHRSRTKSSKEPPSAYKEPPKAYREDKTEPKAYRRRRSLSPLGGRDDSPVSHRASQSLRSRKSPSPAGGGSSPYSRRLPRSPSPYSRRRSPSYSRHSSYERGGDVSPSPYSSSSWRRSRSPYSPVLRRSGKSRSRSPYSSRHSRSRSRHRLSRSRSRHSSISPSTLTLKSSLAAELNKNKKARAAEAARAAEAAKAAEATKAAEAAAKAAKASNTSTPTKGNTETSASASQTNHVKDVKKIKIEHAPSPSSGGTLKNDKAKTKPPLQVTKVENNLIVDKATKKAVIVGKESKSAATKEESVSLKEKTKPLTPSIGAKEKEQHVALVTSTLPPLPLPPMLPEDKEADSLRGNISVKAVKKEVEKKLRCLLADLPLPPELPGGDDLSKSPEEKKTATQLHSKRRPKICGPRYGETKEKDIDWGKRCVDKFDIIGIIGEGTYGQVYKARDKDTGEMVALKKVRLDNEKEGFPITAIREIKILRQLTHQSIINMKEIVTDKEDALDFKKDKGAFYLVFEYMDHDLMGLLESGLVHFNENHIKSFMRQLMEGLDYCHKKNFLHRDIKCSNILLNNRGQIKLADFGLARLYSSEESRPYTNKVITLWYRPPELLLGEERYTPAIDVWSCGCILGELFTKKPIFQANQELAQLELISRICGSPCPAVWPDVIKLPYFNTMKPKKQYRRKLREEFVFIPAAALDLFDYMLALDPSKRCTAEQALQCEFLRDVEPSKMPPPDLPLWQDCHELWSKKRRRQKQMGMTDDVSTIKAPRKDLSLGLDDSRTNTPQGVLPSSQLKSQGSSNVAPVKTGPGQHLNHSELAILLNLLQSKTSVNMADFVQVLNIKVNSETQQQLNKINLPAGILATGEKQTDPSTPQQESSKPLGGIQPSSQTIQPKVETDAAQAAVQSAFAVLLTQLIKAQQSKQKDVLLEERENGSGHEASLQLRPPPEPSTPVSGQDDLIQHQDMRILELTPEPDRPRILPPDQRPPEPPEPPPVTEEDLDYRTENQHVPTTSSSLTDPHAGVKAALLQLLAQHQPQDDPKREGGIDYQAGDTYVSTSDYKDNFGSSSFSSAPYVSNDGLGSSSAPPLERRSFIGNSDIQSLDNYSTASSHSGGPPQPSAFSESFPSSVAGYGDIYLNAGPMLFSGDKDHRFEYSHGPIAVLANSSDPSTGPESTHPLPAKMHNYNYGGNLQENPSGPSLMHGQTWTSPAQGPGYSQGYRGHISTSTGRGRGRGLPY

CC(C)CC(=O)N1CCc2nc(-c3ccc(Br)cc3)nc(N(C)Cc3ccccc3)c2C1 [THPP-1-NC]
inactive: residual activity [1] 100% | residual activity [2] 88% | residual activity [3] 83% | residual activity [4] 97% | residual activity [5] 100% | residual activity [6] 91% | residual activity [7] 99% | residual activity [8] 100% | residual activity [9] 100% | residual activity [10] 100% | residual activity [11] 100% | residual activity [12] 100% | residual activity [13] 100% | residual activity [14] 100% | residual activity [15] 100% | residual activity [16] 98% | residual activity [17] 100% | residual activity [18] 61% | residual activity [19] 100% | residual activity [20] 100% | residual activity [21] 92% | residual activity [22] 92% | residual activity [23] 99% | inhibition [24] 49.4% | residual activity [25] 91% | residual activity [26] 100% | residual activity [27] 94% | residual activity [28] 100% | residual activity [29] 82% | residual activity [30] 100% | residual activity [31] 100% | residual activity [32] 100% | inhibition [33] 38% | residual activity [34] 100% | residual activity [35] 100% | residual activity [36] 100% | residual activity [37] 100% | residual activity [38] 94% | inhibition [39] -0.75% | residual activity [40] 97% | residual activity [41] 80% | residual activity [42] 100% | residual activity [43] 86% | residual activity [44] 100%

COCCOc1nc(-c2ccc(Cl)nc2)nc2c1CN(C(=O)c1ncn3ccccc13)CC2 [THPP-1]
inactive: residual activity [1] 100% | residual activity [2] 100% | residual activity [3] 82% | residual activity [4] 87% | residual activity [5] 100% | residual activity [6] 95% | residual activity [7] 90% | residual activity [8] 100% | residual activity [9] 100% | residual activity [10] 100% | residual activity [11] 100% | residual activity [12] 100% | residual activity [13] 100% | residual activity [14] 90% | residual activity [15] 100% | residual activity [16] 66% | residual activity [17] 100% | residual activity [18] 59% | residual activity [19] 100% | residual activity [20] 100% | residual activity [21] 82% | residual activity [22] 100% | residual activity [23] 100% | inhibition [24] 38.1% | residual activity [25] 62% | residual activity [26] 100% | residual activity [27] 83% | residual activity [28] 100% | residual activity [29] 89% | residual activity [30] 100% | residual activity [31] 100% | residual activity [32] 100% | inhibition [33] -1.56% | residual activity [34] 100% | residual activity [35] 100% | residual activity [36] 100% | residual activity [37] 100% | residual activity [38] 100% | inhibition [39] -0.32% | residual activity [40] 100% | residual activity [41] 82% | residual activity [42] 100% | residual activity [43] 70% | residual activity [44] 100%
